Assay results taken from ChEMBL document CHEMBL1150446, “Inhibition of human cytomegalovirus protease by benzoxazinones and evidence of antiviral activity in cell culture” (Bioorg Med Chem Lett, 1997).

Experiments:
Chymotrypsinogen B [1] = biological target: T1, Chymotrypsinogen B (Homo sapiens, UniProt P17538); test: Inhibitory concentration against human chymotrypsin at a concentration of 10 uM
[2] = In vitro biological half-life was measured in human plasma; format: ADME
[3] = biological target: T2, Neutrophil elastase (Homo sapiens) (UniProt P08246); test: Percent inhibition against human leukocyte elastase (HLE) at a concentration of 10 microgM
T2 sequence (whole entry): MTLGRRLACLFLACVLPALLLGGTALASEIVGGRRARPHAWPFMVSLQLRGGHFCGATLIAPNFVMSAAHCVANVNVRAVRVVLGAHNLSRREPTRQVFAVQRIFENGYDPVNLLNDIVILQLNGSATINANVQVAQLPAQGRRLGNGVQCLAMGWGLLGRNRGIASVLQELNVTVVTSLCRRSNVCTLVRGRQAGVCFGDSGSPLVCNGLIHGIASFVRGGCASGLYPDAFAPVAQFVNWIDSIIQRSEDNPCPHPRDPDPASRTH

Chymotrypsinogen B [4] = biological target: T1, Chymotrypsinogen B; test: Inhibitory concentration against human chymotrypsin
Neutrophil elastase = biological target: T3, Neutrophil elastase (Homo sapiens, UniProt P08246); test: Inhibitory concentration against human leukocyte elastase (HLE)
T3 sequence (P08246 whole entry): T2 sequence (whole entry)

[5] = biological target: T2, Neutrophil elastase (Homo sapiens); test: Percent inhibition against human leukocyte elastase (HLE) at a concentration of 100 microgM
Chymotrypsinogen B [6] = biological target: T1, Chymotrypsinogen B; test: Inhibitory concentration against human chymotrypsin at a concentration of 100 uM

T1 sequence (P17538 34-164 limits assumed, other chains not shown): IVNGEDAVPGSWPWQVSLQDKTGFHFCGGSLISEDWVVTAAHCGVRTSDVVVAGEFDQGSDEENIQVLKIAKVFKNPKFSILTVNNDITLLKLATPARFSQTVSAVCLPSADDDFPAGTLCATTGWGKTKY
T1 sequence (P17538 167-263 limits assumed, other chains not shown): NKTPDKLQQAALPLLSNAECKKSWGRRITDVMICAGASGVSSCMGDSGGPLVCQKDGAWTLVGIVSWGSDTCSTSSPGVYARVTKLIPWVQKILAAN

SMILES | inhibition (Chymotrypsinogen B [1]) [%] | half-life [2] [min] | inhibition [3] [%] | IC50 (Chymotrypsinogen B [4]) [nM] | IC50 (Neutrophil elastase) [nM] | inhibition [5] [%] | inhibition (Chymotrypsinogen B [6]) [%]
Cc1c(NC(=O)c2ccccn2)ccc2nc(N[C@H](C)c3ccccc3)oc(=O)c12 | 28 | 31 | 29 | – | – | – | –
Cc1c(N(C)C)ccc2nc(N[C@H](C)c3ccccc3)oc(=O)c12 | – | 127 | – | 65 | 3200 | – | –
Cc1cccc2nc(N[C@H](C)c3ccccc3)oc(=O)c12 | – | 67 | – | 88 | – | – | –
Cc1c(NC(=O)CN(C)C)ccc2nc(N[C@H](C)c3ccccc3)oc(=O)c12 | – | 32 | – | 2600 | – | 67 | –
Cc1cccc2nc(N[C@@H](C)c3ccccc3)oc(=O)c12 | – | 70 | – | 180 | 44 | – | –
Cc1c(NC(=O)OC(C)(C)C)ccc2nc(N[C@H](C)c3ccccc3)oc(=O)c12 | – | 30 | – | 42000 | – | – | –
Cc1cccc2nc(N[C@H](C)c3ccc(Br)cc3)oc(=O)c12 | – | 50 | – | 140 | 20 | – | –
COc1ccc(S(=O)(=O)Nc2ccc3nc(N[C@H](C)c4ccccc4)oc(=O)c3c2C)cc1 | – | 50 | – | 3600 | – | 66 | –
Cc1cccc2nc(NC(C)C)oc(=O)c12 | – | 107 | – | 2000 | 33 | – | –
Cc1c(NC(=O)CN2CCCC2)ccc2nc(N[C@H](C)c3ccccc3)oc(=O)c12 | – | 32 | – | – | – | 36 | 47
